This is an account of results in patent US9403755B2, “Isometheptene isomer” (TONIX PHARMACEUTICALS INC., priority 2013, dated 2016).

A word on the Ki: it is the dissociation constant of the complex between target and ligand, obtained from inhibition or displacement. A high value points to a looser hold on the target. As a reminder, the inhibition is the percentage by which the read-out fell short of the control. In general, EC50 refers to the concentration at which the effect is half-maximal.

For series [1] the following is noted: cited from earlier work; for plasma half-life: human volunteers, enantiomers.
The next series deals with Sigma-1 receptor (Homo sapiens, UniProt Q99720). The experiment in a line: equilibrium binding, Sigma-1 receptor. The settings on record: Sigma 1, equilibrium binding.
Series [2] concerns Sigma receptor (non-selective). In words: ligand binding screen, non-selective Sigma receptor. The settings on record: Sigma (non-select), inhibition of ligand binding.
The next series has as its target T1, Adrenergic a2C (Homo sapiens, UniProt P18825).
T1 sequence (P18825 1-462): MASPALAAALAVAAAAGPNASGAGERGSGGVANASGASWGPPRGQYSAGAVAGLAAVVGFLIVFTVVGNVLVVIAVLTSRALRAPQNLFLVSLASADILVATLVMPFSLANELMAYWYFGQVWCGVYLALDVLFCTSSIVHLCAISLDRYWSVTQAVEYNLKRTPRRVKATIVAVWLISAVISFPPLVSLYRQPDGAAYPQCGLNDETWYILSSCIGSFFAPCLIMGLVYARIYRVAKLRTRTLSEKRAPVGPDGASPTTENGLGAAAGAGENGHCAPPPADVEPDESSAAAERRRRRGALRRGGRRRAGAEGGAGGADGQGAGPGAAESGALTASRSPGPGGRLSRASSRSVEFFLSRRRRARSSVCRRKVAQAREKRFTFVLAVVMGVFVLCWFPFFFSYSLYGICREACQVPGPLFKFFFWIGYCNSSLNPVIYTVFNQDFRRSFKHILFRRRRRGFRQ
The experiment in a line: receptor binding screen, Adrenergic a2C.

Series [3] relates to Imidazoline 1 (I1) receptor. In words: Imidazoline I1 receptor radioligand binding assay. Also noted: species or system bovine. As to conditions: for Ki: Imidazoline-1 (I1), equilibrium binding. Here is the method:
Evaluation of the Affinity of Compounds for the Peripheral Imidazoline Receptor in Bovine Adrenal Medulla Glands Determined in a Radioligand Binding Assay.
Membrane homogenates of adrenal medulla glands (200 μg protein) are incubated for 60 min at 22° C. with 15 nM [^3H]clonidine in the absence or presence of the test compound in a buffer containing 137 mM NaCl, 2.68 mM KCl, 0.5 mM MgCl2, 8.1 mM Na2HPO4, 1.47 mM KH2PO4, 0.5 mM EGTA, 0.5 mM EDTA, 0.5% ascorbic acid and 0.1% BSA (pH 7.4). It also contains 10 μM RX821002 to block the α2-adrenergic receptors.
Nonspecific binding is determined in the presence of 10 μM rilmenidine.
Following incubation, the samples are filtered rapidly under vacuum through glass fiber filters (GF/B, Packard) presoaked with 0.3% PEI and rinsed several times with ice-cold 50 mM Tris-HCl using a 96-sample cell harvester (Unifilter, Packard). The filters are dried then counted for radioactivity in a scintillation counter (Topcount, Packard) using a scintillation cocktail (Microscint 0, Packard).
The results are expressed as a percent inhibition of the control radioligand specific binding.
The standard reference compound is rilmenidine, which is tested in each experiment at several concentrations to obtain a competition curve from which its IC50 is calculated.
Bibliographic reference: MOLDERINGS, G. J., MOURA, D., FINK, K., BONISCH, H. and GOTHERT, M. (1993), Binding of [3H]clonidine to I1-imidazoline sites in bovine adrenal medullary membranes, Naun.-Sch. Arch. Pharm., 348: 70.

Series [4] addresses Imidazoline-2 (I2) receptor. In words: central Imidazoline I2 receptor radioligand binding assay. Also on record: species or system rat. On the procedure: Evaluation of the Affinity of Compounds for the Central Imidazoline I2 Receptor in the Rat Cerebral Cortex Determined in a Radioligand Binding Assay.
Membrane homogenates of cerebral cortex (1 mg protein) are incubated for 30 min at 22° C. with 2 nM [^3H]idazoxan in the absence or presence of the test compound in a buffer containing 50 mM Tris-HCl (pH 7.4), 0.5 mM EDTA and 3 μM yohimbine.
Nonspecific binding is determined in the presence of 10 μM cirazoline.
Following incubation, the samples are filtered rapidly under vacuum through glass fiber filters (Filtermat B, Wallac) presoaked with 0.3% PEI and rinsed several times with an ice-cold buffer containing 50 mM Tris-HCl and 150 mM NaCl using a 48-sample cell harvester (Mach II, Tomtec). The filters are dried then counted for radioactivity in a scintillation counter (Betaplate 1204, Wallac) using a solid scintillator (Meltilex B/HS, Wallac).
The results are expressed as a percent inhibition of the control radioligand specific binding. The standard reference compound is idazoxan, which is tested in each experiment at several concentrations to obtain a competition curve from which its IC50 is calculated.
Bibliographic reference: BROWN, C. M., MAC KINNON, A. C., McGRATH, J. C., SPEDDING, M. and KILPATRICK A. T. (1990), α2-adrenoceptor subtypes and imidazoline-like binding sites in the rat brain, Brit. J. Pharmacol, 99: 803.

The target in the next series is T2, α2B-adrenergic receptor (Homo sapiens, UniProt P18089).
T2 sequence (P18089 1-450): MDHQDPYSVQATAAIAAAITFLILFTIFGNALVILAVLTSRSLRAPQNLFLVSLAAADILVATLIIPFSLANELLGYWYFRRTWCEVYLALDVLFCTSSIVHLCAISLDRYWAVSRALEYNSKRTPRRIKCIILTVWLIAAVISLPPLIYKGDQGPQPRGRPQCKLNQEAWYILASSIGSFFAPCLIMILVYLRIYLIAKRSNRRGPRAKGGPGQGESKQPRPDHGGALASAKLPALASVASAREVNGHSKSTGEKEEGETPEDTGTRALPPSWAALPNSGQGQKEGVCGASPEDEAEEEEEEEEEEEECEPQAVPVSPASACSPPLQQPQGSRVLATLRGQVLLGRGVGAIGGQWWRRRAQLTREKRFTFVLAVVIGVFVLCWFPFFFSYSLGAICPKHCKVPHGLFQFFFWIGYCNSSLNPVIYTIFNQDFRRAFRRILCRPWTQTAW
The experiment in a line: ligand binding screen and equilibrium binding, α2B-adrenergic receptor. As to conditions: Adrenergic a2B; for Ki: equilibrium binding; for inhibition at 10 µM: inhibition of ligand binding.

Another series concerns the target 5-HT7 (Homo sapiens, UniProt P34969). In words: receptor binding screen, 5-HT7. The settings on record: 5-HT7, 10 μM.
For a further series, the target named is Sigma-2 receptor (Homo sapiens, UniProt Q5BJF2). The experiment in a line: equilibrium binding, Sigma-2 receptor. The settings on record: Sigma 2, equilibrium binding.
For another series, the target named is T3, human TAAR1 receptor (Homo sapiens, UniProt Q96RJ0).
T3 sequence (Q96RJ0 1-339): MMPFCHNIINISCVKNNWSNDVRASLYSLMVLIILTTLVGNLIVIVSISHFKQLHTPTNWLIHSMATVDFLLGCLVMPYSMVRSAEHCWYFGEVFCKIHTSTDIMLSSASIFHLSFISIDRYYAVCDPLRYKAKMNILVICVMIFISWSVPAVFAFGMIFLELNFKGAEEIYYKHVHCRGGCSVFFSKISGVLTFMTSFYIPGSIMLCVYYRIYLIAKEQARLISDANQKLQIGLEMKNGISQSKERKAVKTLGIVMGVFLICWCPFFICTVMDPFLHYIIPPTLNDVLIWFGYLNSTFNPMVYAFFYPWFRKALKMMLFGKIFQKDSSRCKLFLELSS
The experiment in a line: TAAR1 cAMP Biosensor Assay. The settings on record: for Efficacy: TAAR1 activation, final concentration of 10 μM, free base; for EC50: TAAR1 cAMP accumulation, agonist dose response, mucate salts. The class given is cell-based. Here is the method:
To measure interactions with TAAR1, cell line stably expressing a recombinant human TAAR1 receptor were studied in the cAMP Biosensor Assay (DiscoveRx, Freemont, Calif.) since TAAR1 is coupled to G-proteins that signal through cAMP. The (S)- and (R)-Isometheptene isomers at a final concentration of 10 μM activate TAAR1 differentially, as shown on the table below, wherein (S)-Isometheptene activates more effectively than the R-Isometheptene. These activities may be linked to side-effects of racemic Isometheptene, due to the interaction of S-Isometheptene to the TAAR1 tyramine receptor.
Isometheptene Mucate USP, Isometheptene Mucate isomer 1, Isometheptene Mucate isomer 2 and p-Tyramine (control) in the TAAR1 cAMP Biosensor Assay of FIG. 23 as shown by the following diagrams (A), (B), (C), and (D). The data is shown as an agonist dose response curve, normalized to the maximal and minimal response observed in the presence of control ligand and vehicle respectively
The cAMP Hunter cell line expressing human TAAR1 was expanded from freezer stocks according to standard procedures. Cells were seeded in a total volume of 20 μL into white walled, 384-well microplates and incubated at 37° C. for the appropriate time prior to testing. cAMP modulation was determined using the DiscoveRx HitHunter cAMP XS+ assay. For agonist determination, cells were incubated with sample to induce response. Media was aspirated from cells and replaced with 15 μL 2:1 HBSS/10 mM Hepes:cAMP XS+ Ab reagent. Intermediate dilution of sample stocks was performed to generate 4× sample in assay buffer. 4.5 μL of 4× sample was added to cells and incubated at 37° C. or room temperature for 30 or 60 minutes. Final assay vehicle concentration was 1%. After appropriate compound incubation, assay signal was generated through incubation with 20 μL cAMP XS+ ED/CL lysis cocktail for one hour followed by incubation with 20 μL cAMP XS+ EA reagent for three hours at room temperature. Microplates were read following signal generation with a PerkinElmer Envision™ instrument for chemiluminescent signal detection. Compound activity was analyzed using CBIS data analysis suite (ChemInnovation, CA). For Gs agonist mode assays, percentage activity was calculated using the following formula: % Activity=100%×(mean RLU of test sample−mean RLU of vehicle control)/(mean RLU of MAX control−mean RLU of vehicle control).
For orientation: Changes in cAMP serve as a functional read-out for many G protein-coupled receptors.

The conditions of series [5]: hydrochloride or mucate salt form; cited from earlier work.
The target in the next series is T4, 5-HT 1A (Homo sapiens, UniProt P08908).
T4 sequence (P08908 1-422): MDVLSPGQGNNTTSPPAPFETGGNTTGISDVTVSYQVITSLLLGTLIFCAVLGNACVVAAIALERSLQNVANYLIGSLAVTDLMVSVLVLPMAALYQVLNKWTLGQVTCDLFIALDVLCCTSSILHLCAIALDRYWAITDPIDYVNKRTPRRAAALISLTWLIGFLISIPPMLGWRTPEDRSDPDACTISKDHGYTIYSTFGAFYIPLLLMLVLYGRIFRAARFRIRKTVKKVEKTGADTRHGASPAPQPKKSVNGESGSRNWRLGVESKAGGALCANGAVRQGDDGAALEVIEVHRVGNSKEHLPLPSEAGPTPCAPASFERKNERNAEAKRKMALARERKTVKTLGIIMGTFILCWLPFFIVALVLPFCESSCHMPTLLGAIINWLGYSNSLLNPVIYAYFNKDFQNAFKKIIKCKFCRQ
In words: receptor binding screen, 5-HT 1A.

Chain of 5-HT7 (P34969 whole entry, species assumed): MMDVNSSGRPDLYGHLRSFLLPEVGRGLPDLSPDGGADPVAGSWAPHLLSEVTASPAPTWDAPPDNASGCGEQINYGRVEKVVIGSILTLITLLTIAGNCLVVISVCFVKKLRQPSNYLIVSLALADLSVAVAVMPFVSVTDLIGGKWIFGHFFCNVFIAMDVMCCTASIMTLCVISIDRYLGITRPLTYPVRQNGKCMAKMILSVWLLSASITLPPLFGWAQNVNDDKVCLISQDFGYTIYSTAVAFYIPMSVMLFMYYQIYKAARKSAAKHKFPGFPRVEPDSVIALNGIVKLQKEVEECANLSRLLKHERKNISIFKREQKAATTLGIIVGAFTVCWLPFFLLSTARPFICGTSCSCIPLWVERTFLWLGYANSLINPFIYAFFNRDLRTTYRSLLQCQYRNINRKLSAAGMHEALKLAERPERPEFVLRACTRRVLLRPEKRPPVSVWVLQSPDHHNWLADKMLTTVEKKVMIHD
Chain of Sigma-2 receptor (Q5BJF2 whole entry, species assumed): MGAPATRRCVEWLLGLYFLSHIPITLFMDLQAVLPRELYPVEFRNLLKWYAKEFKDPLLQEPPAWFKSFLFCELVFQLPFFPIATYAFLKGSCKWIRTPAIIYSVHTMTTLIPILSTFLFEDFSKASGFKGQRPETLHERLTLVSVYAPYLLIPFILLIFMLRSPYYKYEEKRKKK
Chain of Sigma-1 receptor (Q99720 whole entry, species assumed): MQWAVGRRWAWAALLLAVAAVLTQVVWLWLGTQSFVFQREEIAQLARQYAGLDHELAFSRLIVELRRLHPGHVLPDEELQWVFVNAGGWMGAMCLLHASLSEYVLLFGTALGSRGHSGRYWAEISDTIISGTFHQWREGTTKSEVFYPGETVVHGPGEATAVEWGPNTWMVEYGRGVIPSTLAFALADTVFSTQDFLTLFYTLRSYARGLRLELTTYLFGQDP

In the case of `CNC(C)Cc1ccc2c(c1)OCO2` (racemic) [MDMA, 3,4-methylenedioxy-N-methylamphetamine], the half-life entry in series [1] (given as the racemate) was “around 8 hours”.
Consider `CN[C@@H](C)Cc1ccc2c(c1)OCO2` [(S)-MDMA], for which the plasma half-life in [1] was 3.6 ± 0.9 h.
Regarding `CN[C@@H](C)CCC=C(C)C` (single isomer, unassigned) [Isomer 1], the Ki came to 2.1 µM at Sigma-1 receptor; 1.1 µM in series [3]; 1.1 µM in series [4]; 2.7 µM at α2B-adrenergic receptor; 5.2 µM on Sigma-2 receptor. The “Inhibition @ 10 μM(%)” value in [2] came to 87%; in series [4], 84%. The inhibition at 10 µM is 0% on Adrenergic a2C, 29% at α2B-adrenergic receptor and 13% on 5-HT7. Moreover, the “interaction with I1 less avidly than the R-Isometheptene enantiomer” value in [3] ((S) versus (R) enantiomer) is “about 60 fold”. The Efficacy on human TAAR1 receptor stood at 49.4%.
On to `CNC(C)CCC=C(C)C` (single isomer, unassigned) [Isomer 2], for which the inhibition constant Ki was 1.9 µM on Sigma-1 receptor; 0.018 µM in [3]; 1.5 µM in series [4]; 2.3 µM at α2B-adrenergic receptor; 5.6 µM at Sigma-2 receptor. The “Inhibition @ 10 μM(%)” value in [2] and in [4] was 86% in each case. Further, the inhibition at 10 µM on Adrenergic a2C was 0%; on α2B-adrenergic receptor, 57%; on 5-HT7, 31%. Further, the “binding to I1 receptor more avidly than the (S)-Isometheptene enantiomer” value in series [3] ((R) versus (S) enantiomer) is “about 60 fold”. The molecule also returned an Efficacy on human TAAR1 receptor of 25.6%.
For the molecule `CNC(C)CCC=C(C)C` (racemic) [Racemic, reference compound], the inhibition at 10 µM on Adrenergic a2C came out at 41%; at α2B-adrenergic receptor, 76%; on 5-HT7, 46%; on 5-HT 1A it was 37%. Also, in series [5], the solubility in water entry is listed as “soluble in water”.
For `O=C(O)[C@@H](O)[C@H](O)[C@H](O)[C@@H](O)C(=O)O` (single isomer, unassigned) [Isometheptene Mucate Isomer 2], the 50% effective concentration (EC50) at human TAAR1 receptor turned out to be 29.5 µM.
On the same count and under the same terms, the result for `CN[C@@H](C)CCC=C(C)C` (single isomer, unassigned) [Isometheptene Mucate Isomer 1] reads 21.1 µM.
In the case of `CN[C@H](C)Cc1ccc2c(c1)OCO2` [(R)-MDMA, (R)-3,4-methylenedioxy-N-methylamphetamine], the “area under the blood plasma concentration versus time curve (AUC), (R)-MDMA relative to (S)-MDMA” value in [1] (40 mg oral dose in human volunteers) is on record as “two to four times higher”. Besides, in series [1], the plasma half-life is 5.8 ± 2.2 h.
